Source: US20220047587A1, “SYNERGISTIC COMPOSITIONS COMPRISING R-2-(SUBSTITUTED-SULFONYL)-HEXAHYDRO-PYRROLO[1,2-A]PYRAZIN-6(2H)-ONES AND S-2-(SUBSTITUTED-SULFONYL)-HEXAHYDRO-PYRROLO[1,2-A]PYRAZIN-6(2H)-ONES IN A NON-RACEMIC RATIO” (Metys Pharmaceuticals AG, priority 2018, published 2022)
Marks after values point to notes of the source that are not given here.

Columns and labels:
paclitaxel-treated rats = assay: Paclitaxel-induced peripheral sensory neuropathy model, hyperalgesia (paw pressure) after i.v. administration; format: in vivo, rat
Description: (§1) Results are expressed as the minimum dose (via the indicated route) at which a statistically-significant difference is observed when compared to time-matched injured rats receiving a vehicle administration by the same route. An analysis of variance, ANOVA, followed by Fisher's protected least significant difference procedure for post hoc comparison, was used to verify significance between two means of hyperalgesic behavioral results from the Randall & Selitto apparatus paw pressure test (“anti-hyperalgesia”) or from the Von Frey test (“mechanical allodynia”) or from the Cold Plate test (“cold allodynia”). P values 0.05 were considered significant. This definition applies to any doses specified herein as inhibiting “in a statistically significant manner”.
(§2) Paw mechanical sensitivity was determined using a Randall & Selitto apparatus (Randall and Selitto, 1957) exerting a force that increases at constant rate (32 g/s). The stimulus causing paw withdrawal was evaluated before and at different times after treatment. Results represent the mean of mechanical thresholds for paw withdrawal expressed as grams. To avoid possible damage to the rat paw the maximum applied force was set at 240 g. In the single administration protocol, paw pressure tests were performed before (pre-dose) and at regular intervals after treatment.
Paclitaxel (2 mg/kg i.p.) was administered on days 1, 3, 5 and 8. Test compounds were dissolved in saline and administered intravenously at the dose of 1 mg/kg to adult male Sprague-Dawley rats (Charles River, Italy, 220-250 g weight). Data were obtained at 0-75 minutes after injection and are expressed as the mean±s.e.m. of six animals. *P<0.05 and **<0.01 vs vehicle+paclitaxel treated rats; °P<0.05 and ^°°P<0.01 vs. NT24336 (R) treated group. […] *P<0.05 and **<0.01 vss vehicle+paclitaxel treated rats.

scopolamine-treated mice = details: s.c., passive avoidance, cited from earlier work; for Amnesia reversal, %: at the lowest significant dose
[1] = system: streptozotocin-treated mice; assay: Streptozotocin diabetic peripheral neuropathy model, thermal hyperalgesia after oral administration; format: in vivo, mouse; details: p.o.
Description: as §1
Mice (=30 g) were injected intravenously in the tail with 200 mg/kg streptozotocin (Wako Pure Chemicals, Richmond, Va.) prepared in saline adjusted to pH 4.5 in 0.1 N citrate buffer. Age-matched non-diabetic control mice were injected with the vehicle alone. Streptozotocin solutions were freshly prepared due to the limited stability of the compound. Animals were kept in a group of four per cage with special care of food and water supplement. The bed of the cage was changed every day. […] The serum glucose level was measured by glucose oxidase method from blood samples obtained by tail vein pricking. […] Animals at 7 days post-streptozotocin treatment were used in the study. […] Injections were performed using a Hamilton microliter syringe fitted with a 26-gauge needle, according to the method of Haley and McCormick (1957). The site of injection was 2 mm caudal and 2 lateral to the bregma, and 3 mm in depth from the skull surface. The injection volume was 5 μl.

MIA-treated rats = assay: MIA-induced knee osteoarthritis model, mechanical hyperalgesia after i.v. administration; format: in vivo, rat
Description: as §1, §2
A single intra-articular injection of sodium monoiodoacetate (MIA) was introduced into the knee joint of rats according to the method described by Fernihough J et al., 2004. Sodium monoiodoacetate (MIA) inhibits chondrocyte metabolism leading to cartilage degradation in form of osteoarthritic-like focal lesions in the cartilage associated with subchondral bone thickening 14 days after administration (Guingamp et al., 1997). This model therefore can easily and quickly reproduce osteoarthritic-like lesions and functional impairment in rats, similar to that observed in human disease (Guzman et al., 2003). After 7 days post-injection, the inflammatory component subsides and the remaining pain is considered neuropathic in nature. Briefly, rats were deeply anaesthetized with diethyl ether. Following abolition of the hind paw pinch withdrawal reflex, a 27-gauge needle was introduced into the joint cavity between the tibial plateau and femoral condyles. Once in place, 2 mg of MIA were diluted in a volume of […] of 1% CMC (carboxymethylcellulose in water, Sigma-Aldrich, Italy) and injected into one knee joint and the rat was allowed to recover for 14 days prior to pain assessment.

CCI rats = assay: Chronic constriction injury (CCI) model, mechanical allodynia after oral administration; format: in vivo, rat; details: p.o.
Description: as §1
Each animal was placed in a chamber with a mesh metal floor covered by a plastic dome that enabled the animal to walk freely, but not to jump. The mechanical stimulus was then delivered in the mid-plantar skin of left hind paw using an electronic von Frey apparatus (37400 Dynamic Plantar Aesthesiometer, Ugo Basile, Comerio, Varese, Italy). The cut-off was set at 50 g, while the increasing force rate (ramp duration) was set at 20 s. In the single administration protocol, pain threshold measurements have been performed before (pre-dose) and at regular intervals after treatment. In the repeated treatment protocol, the pre-test value was measured 13 h after the last administration; afterward the animals received a new administration and measures were performed at the described times. Results are expressed in […] and represent the mean±S.E.M. of mechanical thresholds.
To evaluate the effect of test compounds in comparison to vehicle or selected comparators on mechanical hyperalgesia, the chronic constriction injury models in rats, a widely accepted model of painful neuropathy (Wang and Wang, 2003) was chosen.
Neuropathy was induced according to the procedure described by Bennett and Xie ([…]). Briefly, rats were anaesthetized with chloral hydrate 400 mg/kg i.p. under aseptic conditions, the right common sciatic nerve was exposed at the level of the middle thigh by blunt dissection. Proximal to the trifurcation, the nerve was carefully freed from the surrounding connective tissue and four chromic cat gut ligatures (4-0, Ethicon, Norderstedt, Germany) were tied loosely around it with about 1 mm spacing. After hemostasis was confirmed, the incision was closed in layers. Then animals were allowed to recover from anesthesia and surgery and were kept one per cage with free access to water and standard laboratory chow. This procedure induces the appearance of hyperalgesia and allodynia in response to mechanical stimuli, which are evident 2-5 days after injury and reach their maximum severity in about 14 days.

SMILES	Lowest dose at which paclitaxel-induced hyperalgesia is inhibited in a statistically significant manner (P < 0.05) (paclitaxel-treated rats; 15 min after administration)	Lowest dose at which paclitaxel-induced hyperalgesia is inhibited in a statistically significant manner (P < 0.05) (paclitaxel-treated rats; 30 min after administration) [mg/kg]	Lowest dose at which paclitaxel-induced hyperalgesia is inhibited in a statistically significant manner (P < 0.05) (paclitaxel-treated rats; 45 min after administration) [mg/kg]	Amnesia reversal, % (scopolamine-treated mice) [%]	Lowest Dose at which scopolamine-induced amnesia is reversed in a statistically significant manner (P < 0.01) (scopolamine-treated mice) [mg/kg]	Lowest dose at which streptozotocin-induced diabetese-like thermal hyperalgesia is inhibited in a statistically significant manner (P < 0.05) ([1]; 30 min after administration) [mg/kg]	Lowest dose at which streptozotocin-induced diabetese-like thermal hyperalgesia is inhibited in a statistically significant manner (P < 0.05) ([1]; 60 min after administration) [mg/kg]	Lowest dose at which streptozotocin-induced diabetese-like thermal hyperalgesia is inhibited in a statistically significant manner (P < 0.05) ([1]; 90 min after administration) [mg/kg]	Lowest dose at which MIA-induced mechanical hyperalgesia is inhibited in a statistically significant manner (P < 0.05) (MIA-treated rats; 15 min after administration) [mg/kg]	Lowest dose at which MIA-induced mechanical hyperalgesia is inhibited in a statistically significant manner (P < 0.05) (MIA-treated rats; 30 min after administration) [mg/kg]	Lowest dose at which MIA-induced mechanical hyperalgesia is inhibited in a statistically significant manner (P < 0.05) (MIA-treated rats; 45 min after administration) [mg/kg]	Lowest dose at which CCI-induced mechanical allodynia is inhibited in a statistically significant manner (P < 0.05) (CCI rats; 30 min after administration) [mg/kg]	Lowest dose at which CCI-induced mechanical allodynia is inhibited in a statistically significant manner (P < 0.05) (CCI rats; 60 min after administration) [mg/kg]	Lowest dose at which CCI-induced mechanical allodynia is inhibited in a statistically significant manner (P < 0.05) (CCI rats; 90 min after administration) [mg/kg]	Lowest dose at which streptozotocin-induced diabetese-like thermal hyperalgesia is inhibited in a statistically significant manner (P < 0.05) ([1]; 120 min after administration) [mg/kg]	Lowest dose at which paclitaxel-induced hyperalgesia is inhibited in a statistically significant manner (P < 0.05) (paclitaxel-treated rats; 60 min after administration) [mg/kg]
O=C1CCC2CN(S(=O)(=O)c3ccc(F)cc3)CCN12 (centres unmarked) [NT-24234, 2-(4-fluorophenyl)sulfonyl-hexahydropyrrolo[1,2-a]pyrazin-6(2H)-one]	1 mg/kg	3	>10	78	0.003	–	–	–	–	–	–	–	–	–	–	–
O=C1CCC2CN(S(=O)(=O)c3cccc(F)c3)CCN12 (centres unmarked) [NT-24337, 2-(3-fluorophenyl)sulfonyl-hexahydropyrrolo[1,2-a]pyrazin-6(2H)-one]	3 mg/kg	3	3	–	–	10	10	10	3	3	3	1	1	3	–	–
O=C1CCC2CN(S(=O)(=O)c3cccc(F)c3)CCN12 (centres unmarked) [NT-24782, 2-(3-fluorophenyl)sulfonyl-hexahydropyrrolo[1,2-a]pyrazin-6(2H)-one]	>3 mg/kg	>3	>3	–	–	–	–	–	–	–	–	–	–	–	–	–
CNCC[C@H](Oc1cccc2ccccc12)c1cccs1 [Duloxetine, reference compound]	–	–	–	–	–	30	30	30	–	–	–	–	–	–	30	–
O=C1CCC2CN(S(=O)(=O)c3ccc(F)cc3)CCN12 (centres unmarked) [NT-24266, 2-(4-fluorophenyl)sulfonyl-hexahydropyrrolo[1,2-a]pyrazin-6(2H)-one]	1 mg/kg	3	>10	75	0.001	–	–	–	–	–	–	–	–	–	–	–
O=C1CCC2CN(S(=O)(=O)c3ccc(F)cc3)CCN12 (racemic) [NT-24617, (RS)-2-[(4-fluorophenyl)sulfonyl]hexahydropyrrolo[1,2-a]pyrazin-6-one]	3* mg/kg	3	3	100	0.001	–	–	–	–	–	–	–	–	–	–	>3
